{"source": "patent US6768024B1", "about": "“Triamine derivative melanocortin receptor ligands and methods of using same” (Lion Bioscience AG, priority 2000, dated 2004)", "origin": "cited, not measured here", "key": {"rats": {"test_system": "rats", "conditions": "IP, ICV"}, "human subjects": {"test_system": "human subjects", "conditions": "pilot phase I"}, "rodent models": {"test_system": "rodent models", "conditions": "normal, Zucker fatty and diet-induced obesity rodent models"}}, "data": [{"compound": "Ac-Nle-Gln-His-(D)-Phe-Arg-(D)-Trp-Gly-NH2 [HP228]", "values": [{"measurement": "hypophagia and weight loss", "setting": "rats", "result": "notable hypophagia and weight loss"}]}, {"compound": "MELANOTAN-II", "values": [{"measurement": "penile erections", "setting": "human subjects", "result": "cause penile erections"}]}, {"compound": "CC(C)CC(N(C)C)C1(c2ccc(Cl)cc2)CCC1", "note": "(stereo not drawn) [Sibutramine]", "values": [{"measurement": "body weight", "setting": "rodent models", "result": "lower body weight"}]}]}
